# From PubChem BioAssay AID1963870 (Molecular Pharmacology Branch, DTP, NCI, 2024)
# System: 292921-168-R-J2-PDC KRAS tumor spheroid viability
# Assay: Anticancer human tumor 292921-168-R-J2-PDC patient-derived pancreatic carcinoma cell line growth inhibition [KRAS2]
# Details: spheroids with HUVEC and MSC; for IC50: curve of first compound; for viability, T/C: stronger effect = lower value
# From the text: Multicellular complex tumor spheroid response to RAS pathway inhibitors in combination with a targeted agents in patient-derived cell lines with oncogenic KRAS variants from multiple cancer types
# A high-throughput screen of multi-cell type tumor spheroids was designed to identify active combinations of targeted small molecules and KRAS pathway inhibitors. Complex spheroids include a stromal component modeled by human endothelial cells (HUVEC) and fibroblasts modeled by human mesenchymal stem cells (MSCs). The concentration ranges selected for each drug and investigational agent were based upon clinically achievable concentrations if the clinical Cmax of the agent was known.
# Compounds. The drugs and investigational agents: BI-3406 (NSC825286), BAY-293 (NSC824723), batoprotafib (TNO155; NSC825523), sotorasib (AMG 510; NSC818433), MRTX1257 (NSC819558), elimusertib (BAY 1895344; NSC800525), molibresib (GSK525762; NSC774829), temuterkib (LY3214996; NSC803410), venetoclax (NSC766270), alisertib (NSC759677), olaparib (NSC753686), talazoparib (NSC767125), erdafitinib (NSC781556), ipatasertib (NSC767898), cabozantinib (NSC761068), nintedanib (NSC756659), abemaciclib (NSC768073), docetaxel (NSC628503), trametinib (NSC758246), and sapanisertib (NSC764658) were obtained from the National Cancer Institute (NCI) Developmental Therapeutics Program Chemical Repository. The FDA-approved anticancer drug set is available from the Developmental Therapeutics Program. […] The stock solutions were prepared in dimethyl sulfoxide (DMSO, Sigma-Aldrich, St. Louis, MO, cat. D2650) at 800-fold the tested concentration and stored at -70 degrees C prior to their use. All drugs and investigational agents were tested over a range starting from a high concentration at or near the clinical Cmax and decreasing in half-log increments. If the clinical Cmax for an agent had not been determined, the highest concentration tested was 10 microM.
# Cell Culture. All cells were maintained in an incubator at 37 degrees C and 5% CO2 with 95% humidity. The PDC lines were cultured according to standard operating procedures established by the NCI PDMR (https://pdmr.cancer.gov/sops/default.htm). Briefly, all PDCs were thawed and cultured in Matrigel-coated flasks prepared with a working solution of 1X Ham's F-12 nutrient mix, without supplementation (Invitrogen, Waltham, MA, cat. 11765054), 100 U/mL penicillin-streptomycin (Invitrogen, cat. 15140122), and 2.5% Matrigel (Corning Inc., Corning, NY, cat. 354248) for the first three passages. All PDCs were cultured in complete DMEM/F-12 media containing advanced DMEM/F-12 (Invitrogen, cat. 12634028), 4.9% defined fetal bovine serum, heat inactivated (HyClone Laboratories Inc., Logan, UT, cat. SH30070.03HI), 389 ng/mL hydrocortisone (Sigma-Aldrich, cat. H4001), 9.7 ng/mL human EGF recombinant protein (Invitrogen, cat. PHG0313), 23.4 microg/mL adenine (Sigma-Aldrich, cat. A2786), 97.3 U/mL penicillin-streptomycin (Invitrogen, cat. 15140122), 1.9 mM L-glutamine (Invitrogen, cat. 25030081), and 9.7 microM Y-27632 dihydrochloride (Tocris Bioscience, Bristol, United Kingdom, cat. 1254). The PDCs were cultured in complete DMEM/F12 media without 9.7 microM Y-27632 dihydrochloride for at least two passages prior to the screen. The established cell line HOP-62 was cultured in RPMI 1640 medium, HEPES (Invitrogen, cat. 22400105) with 10% defined fetal bovine serum (HyClone Laboratories Inc., cat. SH30070.03) and 2 mM L-glutamine (Invitrogen, cat. 25030081). The pooled donor HUVEC were cultured in endothelial cell growth medium 2 (PromoCell, Heidelberg, Germany, cat. C-22011) and the hMSC were cultured in mesenchymal stem cell growth medium 2 (PromoCell, cat. C-28009). For all experiments, HUVEC and hMSC were used at passages </=5, while the malignant cell lines were used at passages </=15. […]
# [1] = second compound 0.1 µM, first compound 0.0316 µM
# [2] = second compound 0.1 µM, first compound 0.1 µM
# [3] = second compound 0.1 µM, first compound 0.316 µM
# [4] = second compound 0.1 µM, first compound 1 µM
# [5] = second compound 0.1 µM, first compound 3.16 µM
# [6] = second compound 0.1 µM, first compound 10 µM
# [7] = second compound 0.316 µM, first compound 0.0316 µM
# [8] = second compound 0.316 µM, first compound 0.1 µM
# [9] = second compound 0.316 µM, first compound 0.316 µM
# [10] = second compound 0.316 µM, first compound 1 µM
# [11] = second compound 0.316 µM, first compound 3.16 µM
# [12] = second compound 0.316 µM, first compound 10 µM
# [13] = second compound 1 µM, first compound 0.0316 µM
# [14] = second compound 1 µM, first compound 0.1 µM
# [15] = second compound 1 µM, first compound 0.316 µM
# [16] = second compound 1 µM, first compound 1 µM
# [17] = second compound 1 µM, first compound 3.16 µM
# [18] = second compound 1 µM, first compound 10 µM
# [19] = second compound 3.16 µM, first compound 0.0316 µM
# [20] = second compound 3.16 µM, first compound 0.1 µM
# [21] = second compound 3.16 µM, first compound 0.316 µM
# [22] = second compound 3.16 µM, first compound 1 µM
# [23] = second compound 3.16 µM, first compound 3.16 µM
# [24] = second compound 3.16 µM, first compound 10 µM
# [25] = second compound 10 µM, first compound 0.0316 µM
# [26] = second compound 10 µM, first compound 0.1 µM
# [27] = second compound 10 µM, first compound 0.316 µM
# [28] = second compound 10 µM, first compound 1 µM
# [29] = second compound 10 µM, first compound 3.16 µM
# [30] = second compound 10 µM, first compound 10 µM
# 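Also: drug exposure lasted seven days after spheroids formed for three days.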
# 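For viability, T/C in this document: percent of DMSO vehicle control viability which is 100%.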
SMILES,IC50 (second compound 0.1 µM),IC50 (second compound 0.316 µM),IC50 (second compound 1 µM),IC50 (second compound 3.16 µM),IC50 (second compound 10 µM),"viability, T/C [1]","viability, T/C [2]","viability, T/C [3]","viability, T/C [4]","viability, T/C [5]","viability, T/C [6]","viability, T/C [7]","viability, T/C [8]","viability, T/C [9]","viability, T/C [10]","viability, T/C [11]","viability, T/C [12]","viability, T/C [13]","viability, T/C [14]","viability, T/C [15]",also measured
COC(=O)c1ccc2c(C(=Nc3ccc(N(C)C(=O)CN4CCN(C)CC4)cc3)c3ccccc3)c(O)[nH]c2c1 + C=CC(=O)N1CCN(c2nc(=O)n(-c3c(C)ccnc3C(C)C)c3nc(-c4c(O)cccc4F)c(F)cc23)C(C)C1,< 0.0316 µM,< 0.0316 µM,0.0588 µM,0.0418 µM,< 0.0316 µM,44.2%,39.2%,30.9%,18.8%,11.9%,0.29%,48.4%,40.6%,25.3%,20.1%,5.83%,0.17%,56.8%,43.7%,29.2%,"viability, T/C [16]: 15.8%; viability, T/C [17]: 2.31%; viability, T/C [18]: 0.19%; viability, T/C [19]: 52.8%; viability, T/C [20]: 41.5%; viability, T/C [21]: 25.7%; viability, T/C [22]: 16.9%; viability, T/C [23]: 2.53%; viability, T/C [24]: 0.13%; viability, T/C [25]: 38.1%; viability, T/C [26]: 36.4%; viability, T/C [27]: 24.8%; viability, T/C [28]: 19.2%; viability, T/C [29]: 3.45%; viability, T/C [30]: 0.21%"
O=C(c1cc(Cc2n[nH]c(=O)c3ccccc23)ccc1F)N1CCN(C(=O)C2CC2)CC1 + C=CC(=O)N1CCN(c2nc(=O)n(-c3c(C)ccnc3C(C)C)c3nc(-c4c(O)cccc4F)c(F)cc23)C(C)C1,7.63 µM,8.38 µM,6.67 µM,1.02 µM,< 0.0316 µM,97.8%,87%,88%,84.1%,76.8%,41.9%,90.8%,82.1%,79.4%,85.9%,75.7%,45.1%,77%,72.3%,76.2%,"viability, T/C [16]: 84.2%; viability, T/C [17]: 62.1%; viability, T/C [18]: 41%; viability, T/C [19]: 64%; viability, T/C [20]: 59.5%; viability, T/C [21]: 56.7%; viability, T/C [22]: 47.5%; viability, T/C [23]: 46.7%; viability, T/C [24]: 38.2%; viability, T/C [25]: 27.3%; viability, T/C [26]: 25.9%; viability, T/C [27]: 28.2%; viability, T/C [28]: 28.9%; viability, T/C [29]: 32%; viability, T/C [30]: 29.1%"
